In ChEMBL document CHEMBL4765246, “Design, synthesis and biological evaluation of quinoxaline compounds as anti-HIV agents targeting reverse transcriptase enzyme” (Eur J Med Chem, 2020):

Columns and labels:
[1] = tested on: Human immunodeficiency virus type 1 BH10; assay: (§1) Inhibition of wild type recombinant HIV-1 subtype B BH10 p66/p51 reverse transcriptase heterodimer expressed in Escherichia coli BL21 (DE3) assessed as inhibition of dTTP incorporation on poly(rA)-oligo(dT) template primer duplex at 10 uM preincubated with enzyme for 2 mins followed by incubation with poly(A)-oligo(dT) templates for 2 hrs by flourescence assay method; conditions: time 122.0 min
[2] = tested on: Human immunodeficiency virus type 1 BH10; assay: as §1, with “at 100” for “at 10”; conditions: time 122.0 min
[3] = tested on: Human immunodeficiency virus type 1 BH10; assay: as §1, with “of” for “of wild type”, “heterodimer K103N mutant” for “heterodimer expressed in Escherichia coli BL21 (DE3)”, “at 50” for “at 10”; conditions: time 122.0 min
[4] = as §1, with “duplex” for “duplex at 10 uM”; set-up: species or system Human immunodeficiency virus type 1 BH10
[5] = tested on: Human immunodeficiency virus type 1 BH10; assay: Selectivity for inhibition of wild type recombinant HIV-1 subtype B BH10 p66/p51 reverse transcriptase heterodimer expressed in Escherichia coli BL21 (DE3) at 50 uM over inhibition of recombinant HIV-1 subtype B BH10 p66/p51 reverse transcriptase heterodimer K103N mutant at 50 uM by fluorescence based assay
[6] = Anti-HIV-1 activity against HTLV-3B infected in human MT2 cells assessed as reduction in syncytium formation by measuring reduction in p24 antigen production measured after 4 days by ELISA method; type: functional, cell-based; conditions: Human immunodeficiency virus 1, HTLV-3B, MT2, 96 h
[7] = Cytotoxicity against human MT2 cells assessed as reduction in cell viability measured after 4 days by Trypan blue assay; type: cell-based; conditions: time 4 day
[8] = Selectivity index, ratio of CC50 for human MT2 cells to EC50 for anti-HIV-1 activity against HTLV-3B infected in human MT2 cells; type: toxicity, cell-based; conditions: read-out: Ratio CC50/EC50

O=C1CN(C(=O)CCCl)c2ccccc2N1
inhibition [1]: 12% | inhibition [2]: 26%

Oc1nc2ccccc2nc1Cc1ccccc1
inhibition [1]: 10% | inhibition [2]: 26%

Oc1nc2ccccc2nc1O
inhibition [1]: 8% | inhibition [2]: 1%

O=C1CN(C(=O)c2ccccc2)c2ccccc2N1
inhibition [1]: 14% | inhibition [2]: 33%

O=C1CN(C(=O)CCl)c2ccccc2N1
inhibition [1]: 24% | inhibition [2]: 32%

CC(=O)N1CC(=O)Nc2ccccc21
inhibition [1]: 7% | inhibition [2]: 56%

CCOC(=O)CCc1nc2ccccc2nc1O
inhibition [1]: 15% | inhibition [2]: 12%

CC(C)[C@H]1C(=O)Nc2ccccc2N1C(=O)CCl
inhibition [1]: 5% | inhibition [2]: 12%

CC(C)OC(=O)N1CC(=O)Nc2ccccc21
inhibition [1]: 20% | inhibition [2]: 19%

C[C@H]1CNc2ccccc2N1C(=O)CCl
inhibition [1]: 8% | inhibition [2]: 8%

O=C1CN(S(=O)(=O)c2ccccc2)c2ccccc2N1
inhibition [1]: 14% | inhibition [2]: 12%

COC(=O)CCc1nc2ccccc2nc1O
inhibition [1]: 8% | inhibition [2]: 23%

CCC(=O)N1c2ccccc2NC(=O)[C@@H]1C
inhibition [1]: 7% | inhibition [2]: 23%

Cc1nc2ccccc2nc1O
inhibition [1]: 3% | inhibition [2]: 1%

CC(C)[C@H]1C(=O)Nc2ccccc2N1C(=O)CCCl
inhibition [1]: 7% | inhibition [2]: 7%

O=C(O)CCc1nc2ccccc2[nH]c1=O
inhibition [1]: 20% | inhibition [2]: 15%

CC(C)Cc1nc2ccccc2[nH]c1=O
inhibition [3]: 5% | IC50 [4]: 23 µM | Selectivity ratio [5]: 16 | inhibition [1]: 15% | inhibition [2]: 73% | EC50 [6]: > 10000 nM | CC50 at 96 h [7]: 134 µM

CCC(=O)N1CC(=O)Nc2ccccc21
inhibition [3]: 47% | IC50 [4]: 0.63 µM | Selectivity ratio [5]: 2 | inhibition [1]: 91% | inhibition [2]: 99% | EC50 [6]: 3.1 nM | CC50 at 96 h [7]: 98.6 µM | selectivity ratio [8]: 31800

CC(C)COC(=O)N1c2ccccc2NC(=O)[C@@H]1C
inhibition [3]: 13% | IC50 [4]: 64 µM | Selectivity ratio [5]: 5 | inhibition [1]: 37% | inhibition [2]: 64% | EC50 [6]: 1580 nM | CC50 at 96 h [7]: 117 µM | selectivity ratio [8]: 74

CC(C)C[C@H]1C(=O)Nc2ccccc2N1C(=O)CCCl
inhibition [1]: 10% | inhibition [2]: 20%

CC(C)OC(=O)CCc1nc2ccccc2nc1O
inhibition [1]: 21% | inhibition [2]: 25%

CC(C)COC(=O)N1c2ccccc2NC(=O)[C@@H]1CC(C)C
inhibition [3]: 20% | IC50 [4]: 67 µM | Selectivity ratio [5]: 3 | inhibition [1]: 22% | inhibition [2]: 51%

CC(C)COC(=O)N1CC(=O)Nc2ccccc21
inhibition [1]: 20% | inhibition [2]: 46% | EC50 [6]: > 10000 nM | CC50 at 96 h [7]: 262 µM

CC(C)c1nc2ccccc2[nH]c1=O
inhibition [1]: 12% | inhibition [2]: 17%

C[C@H]1C(=O)Nc2ccccc2N1C(=O)CCCl
inhibition [1]: 15% | inhibition [2]: 28%

Cc1ccnc2c1NC(=O)c1cccnc1N2C1CC1 [NEVIRAPINE]
inhibition [3]: 50% | IC50 [4]: 0.13 µM | Selectivity ratio [5]: 2 | inhibition [1]: 91% | inhibition [2]: 98% | EC50 [6]: 6.7 nM | CC50 at 96 h [7]: 96.2 µM | selectivity ratio [8]: 14400
